Assay results taken from patent US20200031785A1, “METHODS FOR TREATING CHRONIC PAIN AND OPIOID DEPENDENCE USING ADENYLYL CYCLASE INHIBITORS” (Purdue Research Foundation, priority 2017, published 2020).

Legend:
[1] = target: T1, hAC8 (Homo sapiens, UniProt P40145); experiment: Cyclic AMP accumulation in HEK cells stably expressing AC8, stimulated with A23187 (HTRF); type: cell-based; conditions: HEK-AC8 cells; for inhibition at 30 µM: HEK293; for IC50: read-out: HEK-AC8 IC50
T1 construct: expressed in transfected cells
T1 sequence (P40145 whole entry): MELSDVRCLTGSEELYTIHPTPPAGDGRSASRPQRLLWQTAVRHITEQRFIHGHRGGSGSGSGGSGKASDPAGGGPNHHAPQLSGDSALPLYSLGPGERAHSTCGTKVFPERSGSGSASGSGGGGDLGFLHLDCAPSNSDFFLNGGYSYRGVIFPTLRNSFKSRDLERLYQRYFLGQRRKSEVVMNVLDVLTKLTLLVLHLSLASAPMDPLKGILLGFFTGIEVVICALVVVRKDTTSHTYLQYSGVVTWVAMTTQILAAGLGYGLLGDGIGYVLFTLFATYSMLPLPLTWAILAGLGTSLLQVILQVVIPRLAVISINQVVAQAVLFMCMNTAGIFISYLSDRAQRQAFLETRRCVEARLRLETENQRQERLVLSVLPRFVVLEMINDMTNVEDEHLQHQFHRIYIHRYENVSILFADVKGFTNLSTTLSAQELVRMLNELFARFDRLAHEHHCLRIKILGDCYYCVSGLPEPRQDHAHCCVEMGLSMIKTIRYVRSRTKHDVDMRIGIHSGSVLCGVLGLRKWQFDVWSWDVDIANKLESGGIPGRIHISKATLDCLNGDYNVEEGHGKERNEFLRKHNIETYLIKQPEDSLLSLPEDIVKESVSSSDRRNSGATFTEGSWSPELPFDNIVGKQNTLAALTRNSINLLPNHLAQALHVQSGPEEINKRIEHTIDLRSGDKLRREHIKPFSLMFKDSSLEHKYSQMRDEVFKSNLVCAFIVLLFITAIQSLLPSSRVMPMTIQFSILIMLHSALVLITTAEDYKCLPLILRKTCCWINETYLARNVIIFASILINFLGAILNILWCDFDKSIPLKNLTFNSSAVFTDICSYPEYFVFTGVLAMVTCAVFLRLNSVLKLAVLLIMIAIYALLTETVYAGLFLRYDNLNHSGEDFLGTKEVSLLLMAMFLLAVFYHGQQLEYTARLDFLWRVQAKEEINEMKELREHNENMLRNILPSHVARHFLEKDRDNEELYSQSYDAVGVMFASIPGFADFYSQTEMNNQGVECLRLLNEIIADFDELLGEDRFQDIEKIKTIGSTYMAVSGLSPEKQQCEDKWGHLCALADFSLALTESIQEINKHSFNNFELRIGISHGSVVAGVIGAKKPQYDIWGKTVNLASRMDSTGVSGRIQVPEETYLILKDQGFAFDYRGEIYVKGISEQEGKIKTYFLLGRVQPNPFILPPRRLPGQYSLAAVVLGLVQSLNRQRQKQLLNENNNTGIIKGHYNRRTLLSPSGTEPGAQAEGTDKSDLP
Protocol: (§1) Fresh powders of several robust inhibitors (>90% inhibition) were evaluated in multiple confirmation assays assessing the dose response relationship for inhibiting AC1 and AC8 activity. Confirmation assays used A23817 to selectively stimulate recombinant AC1 or AC8 in the HEK cell background (Cumbay and Watts (2001), J. Pharmacol Exp Ther 297:1201-1399). This approach takes advantage of one unique regulatory property of AC1 for the development of selective inhibitors. Both AC1 and AC8 are robustly activated by Ca^2+/CaM under a variety of conditions, whereas the effects of Ca^2+/CaM on AC3 are modest and conditional requiring activation by G proteins. Previous studies have identified unique Ca^2+/CaM binding domains as one possible site of interaction to achieve AC1 (vs. AC8) selectivity (Masada et al., 2012, Biochemistry 51:7917-7929).
(§2) The primary technology we employed to measure cAMP accumulation was a homogenous time-resolved fluorescence (HTRF) assay, the same technology utilized in the primary screen. […] This could be due to either 1) the chemical scaffolds are exquisitely selective toward the AC family of enzymes or 2) the library has not been screened against a sufficient number of targets. The answer is likely a combination of the two; nonetheless, the lack of biological data to date bodes well for these series and any potential off-target promiscuity.
(§3) Human embryonic kidney (HEK) cells stably expressing AC1, AC8, or AC1 with the MOR were cultured in Dulbecco's Modified Eagle Medium (Life Technologies, Grand Island, N.Y.) supplemented with 5% bovine calf serum (Hyclone, Logan, Utah), 5% fetal clone I (Hyclone), Antibiotic-Antimycotic (Life Technologies), and G418 (Invivogen, San Diego, Calif.) (HEK-AC1), or hygromycin B (Fisher Scientific, Pittsburgh, Pa.) (HEK-AC8), or G418 and puromycin (Sigma-Aldrich) (HEK-AC1/MOR). Chinese hamster ovary (CHO) cells expressing the MOR (CHO-MOR) in the PathHunter® β-Arrestin GPCR assay platform were purchased from DiscoveRx (Freemont, Calif.). Cells were grown in Ham's F12 media supplemented with 1 mM L-glutamine (Thermo Scientific, West Palm Beach, Fla.), 10% fetal bovine serum (Hyclone), 50 U/ml penicillin, 50 μg/ml streptomycin (Life Technologies), G418 and hygromycin B. Cells were grown and frozen as previously described (J. M. Conley, et al., J Vis Exp, e51218 (2014)).
(§4) Cyclic AMP accumulation was measured as previously described (Brust, et al., J. Pharmacol. Exp. Ther. 352, 480-493(2015)). Briefly, cryopreserved cells were thawed, resuspended in optiMEM (Life Technologies), and plated in white, flat bottom, low-volume, tissue culture-treated 384 well plates (PerkinElmer, Shelton, Conn.). Plates with cells were incubated in a 37° C. humidified incubator for 1 h. Inhibitors were added and plates were incubated at room temperature for 30 min followed by the addition of AC stimulants in the presence of 500 μM IBMX. Cells were incubated at room temperature for 1 h and cAMP accumulation was measured using Cisbio's cAMP kit (Cisbio Bioassays, Bedford, Mass.) according to the manufacturer's instructions.

[2] = target: T2, hAC1 (Homo sapiens, UniProt Q08828); experiment: Cyclic AMP accumulation in HEK cells stably expressing AC1, stimulated with A23187 (HTRF); type: cell-based; conditions: HEK-AC1 cells; for inhibition at 30 µM: HEK293; for IC50: read-out: HEK-AC1 IC50
T2 construct: expressed in transfected cells
T2 sequence (Q08828 whole entry): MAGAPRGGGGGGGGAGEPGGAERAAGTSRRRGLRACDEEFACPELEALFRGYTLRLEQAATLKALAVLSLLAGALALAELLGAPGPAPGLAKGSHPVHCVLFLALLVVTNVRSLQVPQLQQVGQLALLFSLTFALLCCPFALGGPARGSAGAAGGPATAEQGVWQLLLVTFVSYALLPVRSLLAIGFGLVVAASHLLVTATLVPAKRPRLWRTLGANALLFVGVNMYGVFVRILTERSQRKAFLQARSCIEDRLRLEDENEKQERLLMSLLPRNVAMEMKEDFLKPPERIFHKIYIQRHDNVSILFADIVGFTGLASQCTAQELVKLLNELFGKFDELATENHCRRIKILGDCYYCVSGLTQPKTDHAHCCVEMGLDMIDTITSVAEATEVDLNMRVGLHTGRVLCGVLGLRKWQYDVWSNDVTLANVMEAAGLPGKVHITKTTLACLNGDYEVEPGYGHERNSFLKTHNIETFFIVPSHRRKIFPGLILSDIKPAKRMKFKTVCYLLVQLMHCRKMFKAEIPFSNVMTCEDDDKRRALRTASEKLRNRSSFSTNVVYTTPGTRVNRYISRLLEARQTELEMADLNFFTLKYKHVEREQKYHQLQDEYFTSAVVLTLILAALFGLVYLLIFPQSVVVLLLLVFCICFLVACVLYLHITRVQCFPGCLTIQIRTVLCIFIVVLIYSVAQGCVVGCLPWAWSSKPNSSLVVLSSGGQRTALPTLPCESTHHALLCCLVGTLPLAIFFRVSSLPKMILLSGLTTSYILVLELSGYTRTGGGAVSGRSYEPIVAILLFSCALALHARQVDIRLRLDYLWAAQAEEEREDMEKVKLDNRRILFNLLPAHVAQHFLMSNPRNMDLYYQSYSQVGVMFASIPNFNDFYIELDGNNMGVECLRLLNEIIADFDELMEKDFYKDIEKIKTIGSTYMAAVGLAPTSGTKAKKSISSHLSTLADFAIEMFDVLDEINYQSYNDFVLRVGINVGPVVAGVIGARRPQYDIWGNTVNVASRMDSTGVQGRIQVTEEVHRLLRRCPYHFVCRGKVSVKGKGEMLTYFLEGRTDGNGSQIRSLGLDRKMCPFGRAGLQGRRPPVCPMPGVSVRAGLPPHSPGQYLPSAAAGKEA
Protocol: The development and mechanistic characterization of AC1-selective small molecule inhibitors is believed to provide novel non-opioid weapons in the war on chronic pain. We identified our initial hits via screening 10,000 selected compounds from the Life Chemicals collection. The screen was carried out using HEK cells stably expressing AC1 (HEK-AC1) and cyclic AMP accumulation was stimulated using the Ca^2+ ionophore, A23187 to selectively activate AC1. Compounds with potential chemical liabilities and PAINs were removed from further evaluation (Baell and Holloway, J. Med. Chem. 2010, 53, 2719-2740).
as §1, §2, §3, §4

| inhibition at 30 µM [1] [%] | IC50 [1] [µM] | inhibition at 30 µM [2] [%] | IC50 [2] [µM] | SMILES |
| --- | --- | --- | --- | --- |
| 24 ± 7 | 102 ± 26 | 60 ± 3 | 31 ± 3 | O=C(Nc1nnc(-c2ccc3c(c2)OCCO3)o1)c1ccccc1 [AC10001, N-(5-(2,3-dihydrobenzo[b][1,4]dioxin-6-yl)-1,3,4-oxadiazol-2-yl)benzamide] |
| 80 ± 6 | 19.1 ± 5 | 100 ± 1 | 3.4 ± 1 | O=C(Nc1nnc(-c2ccc3c(c2)CCCC3)o1)c1ccccc1 [AC10002, N-(5-(5,6,7,8-tetrahydronaphthalen-2-yl)-1,3,4-oxadiazol-2-yl)benzamide] |
| 3 ± 6 |  | 65 ± 4 | 24.5 ± 2 | O=C(Nc1nnc(C2CCCCC2)o1)c1ccccc1 [AC10003, N-(5-cyclohexyl-1,3,4-oxadiazol-2-yl)benzamide] |
| 8 ± 2 |  | 65 ± 8 | 29 ± 10 | O=C(Nc1nnc(-c2ccc(F)cc2)o1)c1ccccc1 [AC10004, N-(5-(4-fluorophenyl)-1,3,4-oxadiazol-2-yl)benzamide] |
| 64 ± 13 | 27 ± 8 | 74 ± 4 | 12.2 ± 3 | O=C(Nc1nnc(-c2ccc3c(c2)CCCC3)o1)c1ccc(Br)cc1 [AC10005, 4-bromo-N-(5-(5,6,7,8-tetrahydronaphthalen-2-yl)-1,3,4-oxadiazol-2-yl)benzamide] |
| 18 ± 2 | 101 ± 3 | 56 ± 5 | 29 ± 3 | O=C(Nc1nnc(-c2cccs2)o1)c1ccccc1 [AC10006, N-(5-(thiophen-2-yl)-1,3,4-oxadiazol-2-yl)benzamide] |
| 71 ± 11 | 25 ± 8 | 82 ± 7 | 8.6 ± 3 | O=C(Nc1nnc(C2CCCCC2)o1)c1ccc(Br)cc1 [AC10007, 4-bromo-N-(5-cyclohexyl-1,3,4-oxadiazol-2-yl)benzamide] |
| 33 ± 3 | 71 ± 18 | 78 ± 3 | 10 ± 1 | O=C(Nc1nnc(-c2ccc(F)cc2)o1)c1ccc(Br)cc1 [AC10008, 4-bromo-N-(5-(4-fluorophenyl)-1,3,4-oxadiazol-2-yl)benzamide] |
| 41 ± 9 | 55 ± 20 | 81 ± 1 | 7.7 ± 1 | O=C(Nc1nnc(-c2cccs2)o1)c1ccc(Br)cc1 [AC10009, 4-Bromo-N-(5-(thiophen-2-yl)-1,3,4-oxadiazol-2-yl)benzamide] |
| 63 ± 7 | 12.6 ± 6 | 77 ± 13 | 9.9 ± 7 | CC(C)Oc1ccc(C(=O)Nc2nnc(-c3ccc4c(c3)CCCC4)o2)cc1 [AC10010, 4-isopropoxy-N-(5-(5,6,7,8-tetrahydronaphthalen-2-yl)-1,3,4-oxadiazol-2-yl)benzamide] |
| 43 ± 6 | 61 ± 22 | 77 ± 8 | 6.6 ± 3 | CSc1cccc(C(=O)Nc2nnc(C3CCCCC3)o2)c1 [AC10011, N-(5-cyclohexyl-1,3,4-oxadiazol-2-yl)-3-(methylthio)benzamide] |
| 34 ± 1 | 66 ± 2 | 84 ± 5 | 11 ± 2 | CSc1cccc(C(=O)Nc2nnc(-c3cccs3)o2)c1 [AC10012, 3-(methylthio)-N-(5-(thiophen-2-yl)-1,3,4-oxadiazol-2-yl)benzamide] |
| 68 ± 5 | 9.4 ± 2 | 97 ± 4 | 1.7 ± 0.7 | CSc1cccc(C(=O)Nc2nnc(-c3ccc4c(c3)CCCC4)o2)c1 [AC10013, 3-(methylthio)-N-(5-(5,6,7,8-tetrahydronaphthalen-2-yl)-1,3,4-oxadiazol-2-yl)benzamide] |
| 68 ± 0.5 | 23 ± 3 | 101 ± 0.4 | 3.4 ± 0.6 | O=C(Nc1nnc(-c2ccc3c(c2)OCCO3)o1)c1ccc(Br)cc1 [AC10015, 4-bromo-N-(5-(2,3-dihydrobenzo[b][1,4]dioxin-6-yl)-1,3,4-oxadiazol-2-yl)benzamide] |
| 55 ± 3 | 25 ± 4 | 99 | 3.1 ± 0.4 | COc1cccc(C(=O)Nc2nnc(-c3ccc4c(c3)CCCC4)o2)c1 [AC10016, 3-methoxy-N-(5-(5,6,7,8-tetrahydronaphthalen-2-yl)-1,3,4-oxadiazol-2-yl)benzamide] |
| 35 ± 4 | 83 ± 22 | 84 ± 5 | 10.7 ± 2 | CC(C)Oc1ccc(C(=O)Nc2nnc(-c3cccs3)o2)cc1 [AC10017, 4-isopropoxy-N-(5-(thiophen-2-yl)-1,3,4-oxadiazol-2-yl)benzamide] |
| 10 ± 7 |  | 80 ± 5 | 15 ± 2 | COc1ccc(C(=O)Nc2nnc(-c3cccs3)o2)cc1 [AC10018, 4-methoxy-N-(5-(thiophen-2-yl)-1,3,4-oxadiazol-2-yl)benzamide] |
| 37 ± 9 | 76 ± 39 | 88 ± 5 | 9.5 ± 1 | CSc1ccc(C(=O)Nc2nnc(-c3ccc4c(c3)OCCO4)o2)cc1 [AC10020, 4-methylthio-N-(5-(2,3-dihydrobenzo[b][1,4]dioxin-6-yl)-1,3,4-oxadiazol-2-yl)benzamide] |
| 62 ± 8 | 33 ± 8 | 99 ± 1 | 6 ± 0.6 | O=C(Nc1nnc(C2CCCCC2)o1)c1cccc(C(F)(F)F)c1 [AC10021, N-(5-cyclohexyl-1,3,4-oxadiazol-2-yl)-3-(trifluoromethyl)benzamide] |
| 60 ± 8 | 32 ± 12 | 100 ± 0.2 | 5.1 ± 0.7 | O=C(Nc1nnc(-c2ccc3c(c2)OCCO3)o1)c1cccc(C(F)(F)F)c1 [AC10023, N-(5-(2,3-dihydrobenzo[b][1,4]dioxin-6-yl)-1,3,4-oxadiazol-2-yl)-3-(trifluoromethyl)benzamide] |
| 57 ± 7 | 44 ± 6 | 85 ± 4 | 8.1 ± 2 | Cc1ccc(C(=O)Nc2nnc(C3CCCCC3)o2)cc1C [AC10024, N-(5-cyclohexyl-1,3,4-oxadiazol-2-yl)-3,4-dimethylbenzamide] |
| 35 ± 8 | 53 ± 21 | 86 ± 7 | 10.1 ± 1 | CC(C)Oc1ccc(C(=O)Nc2nnc(C3CCCCC3)o2)cc1 [AC10025, N-(5-cyclohexyl-1,3,4-oxadiazol-2-yl)-4-isopropoxybenzamide] |
| 82 ± 7 | 7.9 ± 3 | 100 ± 1 | 1.6 ± 0.2 | O=C(Nc1nnc(-c2ccc3c(c2)CCCC3)o1)c1cccc(C(F)(F)F)c1 [AC10026, N-(5-(5,6,7,8-tetrahydronaphthalen-2-yl)-1,3,4-oxadiazol-2-yl)-3-(trifluoromethyl)benzamide] |
| 58 ± 1 | 29 ± 1 | 99 ± 2 | 5 ± 1 | O=C(Nc1nnc(-c2ccc(F)cc2)o1)c1cccc(C(F)(F)F)c1 [AC10028, N-(5-(4-fluorophenyl)-1,3,4-oxadiazol-2-yl)-3-(trifluoromethyl)benzamide] |
| 25 ± 6 | 83 ± 47 | 86 ± 11 | 11.5 ± 4 | Cc1ccc(C(=O)Nc2nnc(-c3ccc4c(c3)OCCO4)o2)cc1 [AC10029, N-(5-(2,3-dihydrobenzo[b][1,4]dioxin-6-yl)-1,3,4-oxadiazol-2-yl)-4-methylbenzamide] |
| 42 ± 4 | 46 ± 7 | 93 ± 4 | 6.5 ± 1 | Cc1ccc(C(=O)Nc2nnc(-c3ccc(F)cc3)o2)cc1C [AC10030, N-(5-(4-fluorophenyl)-1,3,4-oxadiazol-2-yl)-3,4-dimethylbenzamide] |
